Experimental data: patent US20130005747A1, “METHOD FOR SELECTING A CANCER THERAPY” (Cyclacel Limited, priority 2010, published 2013)

How the values were obtained:
Assay in all cases: Fractional growth, 72 h seliciclib
Assay type in all cases: cell-based, human
HCC-366 = HCC-366 (Lung: NSCLC), 15 μM seliciclib
From the text: (§1) A total of 270 human cancer cell lines from diverse cancer histopathologic types were investigated.

PC-14 = PC-14 (Lung: NSCLC), 15 μM seliciclib
From the text: as §1

GTL-16 = GTL-16 (Stomach), 15 μM seliciclib
From the text: as §1

BFTC-909 = BFTC-909 (Kidney), 15 μM seliciclib
From the text: as §1

TOV-112D = TOV-112D (Ovary), 15 μM seliciclib
From the text: as §1

Hs 633T = Hs 633T (Miscellaneous), 15 μM seliciclib
From the text: as §1

SW 156 = SW 156 (Kidney), 15 μM seliciclib
From the text: as §1

TYK-nu = TYK-nu (Ovary), 15 μM seliciclib
From the text: as §1

PCI-15 = PCI-15 (Head & Neck), 15 μM seliciclib
From the text: as §1

SBC-5 = SBC-5 (Lung), 15 μM seliciclib
From the text: as §1

A2058 = A2058 (Skin), 15 μM seliciclib
From the text: as §1

SK-OV-3 = SK-OV-3 (Ovary), 15 μM seliciclib
From the text: as §1

JHU-028 = JHU-028 (Head & Neck), 15 μM seliciclib
From the text: as §1

T84 = T84 (Intestine), 15 μM seliciclib
From the text: as §1

SNU-449 = SNU-449 (Liver), 15 μM seliciclib
From the text: as §1

HSC-2 = HSC-2 (Head & Neck), 15 μM seliciclib
From the text: as §1

KYSE-510 = KYSE-510 (Esophagus), 15 μM seliciclib
From the text: as §1

DBTRG-05MG = DBTRG-05MG (Brain), 15 μM seliciclib
From the text: as §1

HSC-4 = HSC-4 (Head & Neck), 15 μM seliciclib
From the text: as §1

EPLC-272H = EPLC-272H (Lung: NSCLC), 15 μM seliciclib
From the text: as §1

PCI-15B = PCI-15B (Head & Neck), 15 μM seliciclib
From the text: as §1

LU65C = LU65C (Lung: NSCLC), 15 μM seliciclib
From the text: as §1

A431 = A431 (Skin), 15 μM seliciclib
From the text: as §1

SN-12C = SN-12C (Kidney), 15 μM seliciclib
From the text: as §1

HTC-C3 = HTC-C3 (Thyroid), 15 μM seliciclib
From the text: as §1

CAL-12T = CAL-12T (Lung: NSCLC), 15 μM seliciclib
From the text: as §1

PL4 = PL4 (Pancreas), 15 μM seliciclib
From the text: as §1

MCF7 = MCF7 (Breast), 15 μM seliciclib
From the text: as §1

Saos-2 = Saos-2 (Bone), 15 μM seliciclib
From the text: as §1

LU99A = LU99A (Lung: NSCLC), 15 μM seliciclib
From the text: as §1

LU99B = LU99B (Lung: NSCLC), 15 μM seliciclib
From the text: as §1

KYSE-410 = KYSE-410 (Esophagus), 15 μM seliciclib
From the text: as §1

Hs 766T = Hs 766T (Pancreas), 15 μM seliciclib
From the text: as §1

OE21 = OE21 (Esophagus), 15 μM seliciclib
From the text: as §1

NCI-H2085 = NCI-H2085 (Lung: NSCLC), 15 μM seliciclib
From the text: as §1

EJ138 = EJ138 (Bladder), 15 μM seliciclib
From the text: as §1

VM-CUB1 = VM-CUB1 (Bladder), 15 μM seliciclib
From the text: as §1

CC[C@H](CO)Nc1nc(NCc2ccccc2)c2ncn(C(C)C)c2n1 [seliciclib, roscovitine]
Fractional Growth (HCC-366): 0.2561
Fractional Growth (PC-14): 0.5776
Fractional Growth (GTL-16): 0.6482
Fractional Growth (BFTC-909): 0.7132
Fractional Growth (TOV-112D): 0.3156
Fractional Growth (Hs 633T): 0.41
Fractional Growth (SW 156): 0.467
Fractional Growth (TYK-nu): 0.3005
Fractional Growth (PCI-15): 0.2641
Fractional Growth (SBC-5): 0.7399
Fractional Growth (A2058): 0.6341
Fractional Growth (SK-OV-3): 0.7375
Fractional Growth (JHU-028): 0.5325
Fractional Growth (T84): 0.5371
Fractional Growth (SNU-449): 0.6309
Fractional Growth (HSC-2): 0.5464
Fractional Growth (KYSE-510): 0.4141
Fractional Growth (DBTRG-05MG): 0.7139
Fractional Growth (HSC-4): 0.3894
Fractional Growth (EPLC-272H): 0.6305
Fractional Growth (PCI-15B): 0.2847
Fractional Growth (LU65C): 0.3767
Fractional Growth (A431): 0.3116
Fractional Growth (SN-12C): 0.6383
Fractional Growth (HTC-C3): 0.3914
Fractional Growth (CAL-12T): 0.3472
Fractional Growth (PL4): 0.057
Fractional Growth (MCF7): 0.4137
Fractional Growth (Saos-2): 0.5733
Fractional Growth (LU99A): 0.0948
Fractional Growth (LU99B): 0.2318
Fractional Growth (KYSE-410): 0.4693
Fractional Growth (Hs 766T): 0.4284
Fractional Growth (OE21): 0.4083
Fractional Growth (NCI-H2085): 0.4597
Fractional Growth (EJ138): 0.3103
Fractional Growth (VM-CUB1): 0.3307
